Each structure is given as a SMILES string.

The target in the test is STING (Homo sapiens, UniProt Q86WV6, G230A/H232R/R293Q/R71H). Nature of the test: STING reporter assay in THP1-Dual KO-IFNAR2 cells (2′3′cGAMP stimulation, luciferase reporter). The following applies: 15 μM 2′3′cGAMP stimulation, 24 h, read-out: Pharmaron, THP1_IFNAR2 STING 24 h Luci Normalized: GeoMean EC50. Format: cell-based. An outline of the steps: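 THP1-Dual KO-IFNAR2 cells (2×10E6 cells/mL) with compounds at 0.0017-100 μM final, stimulated with 15 μM final 2′3′cGAMP delivered by Lipofectamine 2000; 24 h at 37 °C. Luciferase in supernatant read with QUANTI-Luc Plus; EC50 derived from luminescence.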
Sequence of STING (Q86WV6 whole entry R71H/G230A/H232R/R293Q): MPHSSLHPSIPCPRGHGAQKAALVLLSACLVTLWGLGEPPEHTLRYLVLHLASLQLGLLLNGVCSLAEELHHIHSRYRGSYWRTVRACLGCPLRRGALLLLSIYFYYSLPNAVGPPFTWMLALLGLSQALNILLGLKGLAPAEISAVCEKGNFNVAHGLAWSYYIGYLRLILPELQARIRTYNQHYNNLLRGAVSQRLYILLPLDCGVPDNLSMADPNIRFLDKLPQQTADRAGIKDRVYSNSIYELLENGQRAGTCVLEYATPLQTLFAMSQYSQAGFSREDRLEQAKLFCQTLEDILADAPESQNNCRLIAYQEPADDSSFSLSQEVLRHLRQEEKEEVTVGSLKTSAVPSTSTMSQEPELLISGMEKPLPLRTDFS
A general note: A reporter such as luciferase makes a cellular process visible.
As a reminder, the EC50 is the concentration that produces a half-maximal response. Turning to `CC(=O)Nc1c[nH]c2ccc(CCOc3ccc(OCC(F)(F)F)cc3)cc12` [Compound 452, N-(5-{2-[4-(2,2,2-trifluoroethoxy)phenoxy]ethyl}-1H-indol-3-yl)acetamide], the EC50 fell in the range of 40 to 200 nM. Then `CC(=O)Nc1c[nH]c2ccc(CCOc3cccc(CC#N)c3)cc12` [Compound 453, N-(5-{2-[3-(cyanomethyl)phenoxy]ethyl}-1H-indol-3-yl)acetamide], with 1000 to 5000 nM. As for `CC(=O)Nc1c[nH]c2ccc(O[C@H]3C[C@@H](c4ccc(C(F)(F)F)nc4)C3)cc12` [Compound 455, N-(5-(cis-3-(6-(trifluoromethyl)pyridin-3-yl)cyclobutoxy)-1H-indol-3-yl)acetamide], the EC50 lay within 200 to 1000 nM. In the case of `CC(=O)Nc1c[nH]c2ccc(CC[C@@H]3C[C@@H]4CN(CC(F)(F)F)C[C@@H]4C3)cc12` [Compound 457, N-(5-(2-((3aR,5r,6aS)-2-(2,2,2-trifluoroethyl)octahydrocyclopenta[c]pyrrol-5-yl)ethyl)-1H-indol-3-yl)acetamide], the EC50 was in the range of 200 to 1000 nM.

Regarding `CC(=O)Nc1c[nH]c2ccc(OCCC34CC(C3)C4)cc12` [Compound 458, N-(5-(2-(bicyclo[1.1.1]pentan-1-yl)ethoxy)-1H-indol-3-yl)acetamide], the EC50 lay within 1000 to 5000 nM. On to `O=C(Nc1c[nH]c2ccc(O[C@H]3C[C@H](c4ccc(C(F)(F)F)cc4)C3)cc12)C1CNC1` [Compound 459, N-{5-[(1R, 3R)-3-[4-(trifluoromethyl)phenyl]cyclobutoxy]-1H-indol-3-yl}azetidine-3-carboxamide], for which the EC50 lay in the range of 5000 to 100000 nM.

Turning to `CC1(C(=O)Nc2c[nH]c3ccc(O[C@H]4C[C@H](c5ccc(C(F)(F)F)cc5)C4)cc23)CCNCC1` [Compound 460, 4-methyl-N-{5-[(1R,3R)-3-[4-(trifluoromethyl)phenyl]cyclobutoxy]-1H-indol-3-yl}piperidine-4-carboxamide], the EC50 was in the range of 1000 to 5000 nM. Under `COCCc1ccc(OCCc2ccc3[nH]cc(NC(C)=O)c3c2)cc1` [Compound 461, N-(5-{2-[4-(2-methoxyethyl)phenoxy]ethyl}-1H-indol-3-yl)acetamide] stands 200 to 1000 nM; under `CC(=O)Nc1c[nH]c2ccc(CCOc3ccc(C#N)cc3)cc12` [Compound 462, N-{5-[2-(4-cyanophenoxy)ethyl]-1H-indol-3-yl}acetamide], 1000 to 5000 nM; under `CC(=O)Nc1c[nH]c2ccc(CCOc3ccnc(C4CC4)c3)cc12` [Compound 463], 5000 to 100000 nM. Under `CC1(C(=O)Nc2c[nH]c3ccc(CCCc4ccc(C(F)(F)F)cn4)cc23)CC1` [Compound 464, 1-methyl-N-(5-(3-(5-(trifluoromethyl)pyridin-2-yl)propyl)-1H-indol-3-yl)cyclopropane-1-carboxamide] stands 200 to 1000 nM. Then `O=C(Nc1c[nH]c2ccc(O[C@H]3C[C@H](c4ccc(C(F)(F)F)nc4)C3)cc12)c1ccc(C(F)(F)F)cc1` [Compound 465, 4-(trifluoromethyl)-N-(5-(trans-3-(6-(trifluoromethyl)pyridin-3-yl)cyclobutoxy)-1H-indol-3-yl)benzamide], with 200 to 1000 nM; and `CC(C)(C)OC(=O)N1CC(C(=O)Nc2c[nH]c3ccc(O[C@H]4C[C@H](c5ccc(C(F)(F)F)cc5)C4)cc23)C1` [Compound 466, tert-butyl 3-((5-(trans-3-(4-(trifluoromethyl)phenyl)cyclobutoxy)-1H-indol-3-yl)carbamoyl)azetidine-1-carboxylate], with 200 to 1000 nM; and `N#CC1CCC1C(=O)Nc1c[nH]c2ccc(O[C@H]3C[C@H](c4ccc(C(F)(F)F)cc4)C3)cc12` (stereo partly drawn) [Compound 467, 2-cyano-N-{5-[(1R,3R)-3-[4-(trifluoromethyl)phenyl]cyclobutoxy]-1H-indol-3-yl}cyclobutane-1-carboxamide], with 200 to 1000 nM. As to `COCC1(C(=O)Nc2c[nH]c3ccc(O[C@H]4C[C@H](c5ccc(C(F)(F)F)cc5)C4)cc23)CC1` [Compound 468, l-(methoxymethyl)-N-{5-[(1R,3R)-3-[4-(trifluoromethyl)phenyl]cyclobutoxy]-1H-indol-3-yl}cyclopropane-1-carboxamide], the EC50 fell in the range of 200 to 1000 nM.

The values above are taken from patent US12503436B2, “Compounds and compositions for treating conditions associated with STING activity” (NOVARTIS PHARMA AG, priority 2021, dated 2025).
